Experimental data reported in patent publication US20120095013A1, “USE OF KMUP-3 FOR MYOCARDIAL INFARCTION” (KAOHSIUNG MEDICAL UNIVERSITY, priority 2010, published 2012).

Experiments:
[1] = tested on: hypertensive rats; details: Wu et al., 2001, Yeh et al., 2010; cited from earlier work
[2] = tested on: MMP-9; assay: MMP-9 protein expression in TGF-β-stimulated human cardiac fibroblasts (HCFs); type: cell-based
Experimental: (§1) Human cardiac fibroblasts (HCFs; catalogue number: 306-05f) are purchased from Cell Applications Inc. (San Diego, Calif., USA). The cells are cultured as monolayer in Dulbecco's modified Eagle's medium containing 10% fetal bovine serum at 37° C. in 95% humidity and 5% CO2. Cells are harvested at passage 3-6 for experiment. Before treatment, HCFs are washed twice with serum-free medium and switched to serum-free medium for 24 h. To stimulate MMP-9 expression, the cultures are treated with 10 ng·mL^−1 transforming growth factor-b (TGF-β) for 24 h. HCFs are pretreated with KMUP-3 (10 mmol·L^−1) or in combination with L-NAME (100 mmol·L^−1) for 1 h before addition of 10 ng·mL^−1 TGF-β for 24 h. Each experiment is repeated three times.
(§2) The hearts are sonicated in 50 mmol·L^−1 Tris for 10 s two times and centrifuged at 13,000 rpm at 4° C. for 30 min. The protein concentration of the supernatants is determined by using bovine serum albumin as the standard. The cell extracts are boiled in ratio of 4:1 with sample buffer (100 mmol·L^−1 Tris, pH 6.8, 20% glycerol, 4% SDS, and 0.2% bromophenol blue). Electrophoresis is performed using 10% SDS-polyacrylamide gel electrophoresis and transferred to nitrocellulose membranes (Millipore Corporation, Billerica, Mass., USA). […] The intensity of the bands is quantified by densitometry.

[3] = tested on: endothelial nitric oxide synthase (eNOS); details: Wu et al., 2005; Lin et al., 2006; cited from earlier work
[4] = tested on: aortic smooth muscle; details: through opening a KATP channel and increasing eNOS; attenuated by glibenclamide; Wu et al., 2005; Lin et al., 2006; cited from earlier work
[5] = tested on: eNOS; assay: Western blot of eNOS protein expression in rat hearts; type: in vivo; details: Western blot densitometry, versus MI group, FIG. 5c
[6] = tested on: MMP-9; assay: Western blot of MMP-9 protein expression in rat hearts; type: in vivo; details: Western blot densitometry, n=9-10, FIG. 5a
[7] = tested on: MI rats; assay: Cardiac fibrosis by Masson's trichrome staining in MI rats; type: in vivo, rat
Excerpt: (§3) MI is induced by ligation of the left anterior descending (LAD) coronary artery according to Liang et al., 2006. […] The LAD is ligated with 6.0 silk at 2 mm from the origin, and the wound is closed with primary suture. After the operation, the animals are observed until fully conscious. Sham animals undergo similar thoracotomy and pericardiotomy, except that the ligature around the coronary artery is not tied. Surviving rats are fitted with ALZET osmotic minipumps (Model 2ML4, DURECT Corporation, Cupertino, Calif., USA) immediately after recovery. At this time, most of the rats are still anaesthetized from the previously administered pentobarbital sodium; a further bolus dose of pentobarbital sodium (15 mg·kg^-1) is given if necessary. […] In the treatment group, the minimumps are filled with hydrochloride of KMUP-3 (KMUP-3·HCl; 0.3 mg·kg^-1·day^-1). In the sham and MI groups, the minipumps are filled with saline. Histological analyses are performed to all of the heart. Rats are randomly chosen to be analyzed for area of risk after coronary artery ligature by Evan blue staining as described by Harada et al. (2005). […] Ten sections in each heart are analyzed for the percentage of fibrosis. […] The total LV and infarct area and fibrosis region are measured by an investigator without knowledge of the treatment group using US NIH ImageJ, 1.42q.

[8] = tested on: phosphodiesterase; details: Wu et al., 2005; Lin et al., 2006; cited from earlier work
[9] = tested on: MI rats; assay: Area of risk (Evans blue) and infarct size (TTC staining) in MI rats; type: in vivo, rat
Excerpt: as §3

[10] = tested on: MI rats; assay: Echocardiography 4 weeks post-surgery in MI rats (LVEDD, LVESD, fractional shortening); type: in vivo, rat; details: KMUP-3 for 4 weeks, FIG. 2
Excerpt: MI is induced by ligation of the left anterior descending (LAD) coronary artery according to Liang et al., 2006. […] The LAD is ligated with 6.0 silk at 2 mm from the origin, and the wound is closed with primary suture. After the operation, the animals are observed until fully conscious. Sham animals undergo similar thoracotomy and pericardiotomy, except that the ligature around the coronary artery is not tied. Surviving rats are fitted with ALZET osmotic minipumps (Model 2ML4, DURECT Corporation, Cupertino, Calif., USA) immediately after recovery. At this time, most of the rats are still anaesthetized from the previously administered pentobarbital sodium; a further bolus dose of pentobarbital sodium (15 mg·kg^−1) is given if necessary. […] In the treatment group, the minimumps are filled with hydrochloride of KMUP-3 (KMUP-3·HCl; 0.3 mg·kg^−1·day^−1). In the sham and MI groups, the minipumps are filled with saline.

[11] = tested on: TIMP-1; assay: TIMP-1 protein expression in TGF-β-stimulated human cardiac fibroblasts (HCFs); type: cell-based; details: KMUP-3 10 mmol·L−1, TGF-β 10 ng·mL−1, FIG. 6b
Experimental: as §1, §2

[12] = tested on: MI rats; assay: Cardiac structure and haemodynamics in rats after myocardial infarction (LAD ligation), LV catheter; type: in vivo, rat
Excerpt: Male rats (250-300 g) are provided by the National Laboratory Animal Breeding and Research Center (Taipei, Taiwan) and housed under constant temperature and controlled illumination. Food and water are available ad libitum. MI is induced by ligation of the left anterior descending (LAD) coronary artery according to Liang et al., 2006. […] The LAD is ligated with 6.0 silk at 2 mm from the origin, and the wound is closed with primary suture. After the operation, the animals are observed until fully conscious. Sham animals undergo similar thoracotomy and pericardiotomy, except that the ligature around the coronary artery is not tied. All the animals are administered with s.c. doses of analgesia (ketoprofen; 3 mg·kg^−1) and antibiotics (gentamicin; 0.7 mg·kg^−1) for 2 days. This study was approved by the Animal Care and Use Committee at Kaohsiung Medical University. Surviving rats are fitted with ALZET osmotic minipumps (Model 2ML4, DURECT Corporation, Cupertino, Calif., USA) immediately after recovery. At this time, most of the rats are still anaesthetized from the previously administered pentobarbital sodium; a further bolus dose of pentobarbital sodium (15 mg·kg^−1) is given if necessary. […] In the treatment group, the minimumps are filled with hydrochloride of KMUP-3 (KMUP-3·HCl; 0.3 mg·kg^−1·day^−1). In the sham and MI groups, the minipumps are filled with saline. After echocardiography, a PE-50 catheter is inserted through the right carotid artery to measure the LV systolic pressure (LVSP), LV end-diastolic pressure (LVEDP) and maximum rates of pressure development (LV+dP/dt) and relaxation (LV−dP/dt). […] The hearts are then excised and the atria and right ventricles are dissected out. Sections of the LV are embedded in mounting medium and the remaining tissues are transferred in the liquid nitrogen for further evaluation. Throughout the whole procedure, a further bolus dose of pentobarbital sodium (15 mg·kg^−1) is given if required.

[13] = tested on: TIMP-1; assay: Western blot of TIMP-1 protein expression in rat hearts; type: in vivo; details: Western blot densitometry, n=9-10, FIG. 5b
[14] = KMUP-3·HCl 0.3 mg·kg−1·day−1 by osmotic minipump, 4 weeks, n=10

Compound: Cn1c(=O)c2c(ncn2CCN2CCN(c3ccccc3Cl)CC2)n(C)c1=O [KMUP-1, 7-[2-[4-(2-chlorobenzene)piperazinyl]ethyl]-1,3-dimethylxanthine]
- Cardioprotection, cardiac hypertrophy and fibrosis, in words [1]: therapeutic effect on the cardioprotection in hypertensive rats, the reducing of the cardiac hypertrophy and fibrosis

Compound: Cn1c(=O)c2c(ncn2CCN2CCN(c3ccc([N+](=O)[O-])cc3)CC2)n(C)c1=O [KMUP-3, 7-[2-[4-(4-nitrobenzene)-piperazinyl]ethyl]-1,3-dimethylxanthine]
- MMP-9 expression in HCFs ([2]; KMUP-3 10 mmol·L−1, 1 h before TGF-β 10 ng·mL−1 for 24 h, FIG. 6a): attenuates the expression of MMP-9
- eNOS in HUVECs, in words [3]: enhance endothelial nitric oxide synthase (eNOS)
- Aortic smooth muscle relaxation, in words [4]: may induce aortic smooth muscle relaxation
- eNOS expression in MI rat hearts [5]: increases significantly
- MMP-9 expression in MI rat hearts [6]: decreases MMP-9 expression
- Cardiac fibrosis in central-infarct and peri-infarct areas ([7]; n=10, FIG. 4a-b): attenuates cardiac fibrosis
- Percentage of fibrosis in non-infarcted area ([7]; n=10, FIG. 4c): comparable with that of the sham-operated hearts
- Phosphodiesterase inhibitor potency, in words [8]: more potent than KMUP-1
- Area of risk after coronary artery ligature ([9]; Evans blue staining, n=5, FIG. 3a): no difference between treatment groups
- Infarction size (infarct area of LV) ([9]; TTC staining, MI rats after KMUP-3 treatment, n=10, MI group 47.4±3.7%, P<0.05): 33.6±1.7%
- Cardiac remodeling and dysfunction by echocardiography (LVEDD, LVESD, FS), in words [10]: cardiac remodeling and dysfunction may be prevented
- TIMP-1 expression in HCFs [11]: significantly enhanced
- Cardiac systolic function (LV+dP/dt), in words ([12]; 0.3 mg·kg−1·day−1 for 4 weeks): improved cardiac systolic function
- Cardiac remodelling (hypertrophy, heart weight to body weight ratio), in words ([12]; KMUP-3 treatment 4 weeks): prevents the cardiac remodelling process
- HR (heart rate) [12, 14]: 421 ± 5 bpm
- HW (heart weight) [12, 14]: 1219 ± 39 mg
- HW/BW [12, 14]: 2.72 ± 0.04 mg/g
- LV +dP/dt [12, 14]: 7637 ± 333 mmHg/s
- LV −dP/dt [12, 14]: −5379 ± 441 mmHg/s
- LVEDP [12, 14]: 12.6 ± 2.3 mmHg
- LVSP [12, 14]: 140.6 ± 4.2 mmHg
- Heart rate change, in words ([12]; after KMUP-3 treatment, not statistically significant): small increase in heart rate
- TIMP-1 expression in MI rat hearts [13]: increases significantly

Compound: COC(=O)[C@@H](N)CCCNC(=N)N[N+](=O)[O-] [L-NAME, N^ω-nitro-L-arginine methyl ester, reference compound]
- Effect of eNOS inhibitor pretreatment on KMUP-3 inhibition of MMP-9 expression in HCFs ([2]; L-NAME 100 mmol·L−1 with KMUP-3 10 mmol·L−1, TGF-β 10 ng·mL−1, FIG. 6a): reverses the inhibition of MMP-9 expression
